Test [1] has as its target PI3K-α (Homo sapiens, UniProt P42336). Put plainly: PI3K-alpha fluorescence polarization assay. The settings on record: read-out: IC50 PI3Kα. Background: In fluorescence polarisation assays a small probe gives low polarisation when free and higher when bound to something large.
For test [2], the system named is human prostate LNCap tumor cell line. Nature of the test: In vitro cell culture growth assay (MTS), LNCap. The note with it: read-out: IC50 LNCap.
Test [3] has as its target PI3K-γ (Homo sapiens, UniProt P48736). Put plainly: PI3K-gamma fluorescence polarization assay. The settings on record: read-out: IC50 PI3Kγ.
For test [4], the target named is Human mTOR (FLAG-TOR) (Homo sapiens, UniProt P42345). Put plainly: mTOR kinase assay (DELFIA format, purified enzyme). The note with it: read-out: IC50 mTOR. The test is classed as biochemical.
For test [5], the system named is human breast MDA-MB-361 tumor cell line. Nature of the test: In vitro cell culture growth assay (MTS), MDA-MB-361. The class given is cell-based. The settings on record: Homo sapiens, 72 h; MDA-MB-361 cells, MTS, three days after drug treatment; read-out: IC50 MDA-MB-361.
In test [6] the test system is human prostate PC3-mm2 tumor cell line. Put plainly: In vitro cell culture growth assay (MTS), PC3-mm2. The class given is cell-based. The settings on record: Homo sapiens, PC3MM2, 72 h, PC3-mm2 cells, MTS, three days after drug treatment; read-out: IC50 PC3-mm2.
Setting [7] is: MTS cell growth assay, three days after drug treatment.

IC50 data for 22 compounds are collected here from patent US20090304692A1, “TRIAZINE COMPOUNDS AS PI3 KINASE AND MTOR INHIBITORS” (Wyeth, priority 2008, published 2009).

Broadly, the IC50 is the concentration at which inhibition is half-maximal.

Like-named read-outs stand apart in the source and are kept apart here.

Chain of Human mTOR (FLAG-TOR) (P42345 1360-2549 limits assumed): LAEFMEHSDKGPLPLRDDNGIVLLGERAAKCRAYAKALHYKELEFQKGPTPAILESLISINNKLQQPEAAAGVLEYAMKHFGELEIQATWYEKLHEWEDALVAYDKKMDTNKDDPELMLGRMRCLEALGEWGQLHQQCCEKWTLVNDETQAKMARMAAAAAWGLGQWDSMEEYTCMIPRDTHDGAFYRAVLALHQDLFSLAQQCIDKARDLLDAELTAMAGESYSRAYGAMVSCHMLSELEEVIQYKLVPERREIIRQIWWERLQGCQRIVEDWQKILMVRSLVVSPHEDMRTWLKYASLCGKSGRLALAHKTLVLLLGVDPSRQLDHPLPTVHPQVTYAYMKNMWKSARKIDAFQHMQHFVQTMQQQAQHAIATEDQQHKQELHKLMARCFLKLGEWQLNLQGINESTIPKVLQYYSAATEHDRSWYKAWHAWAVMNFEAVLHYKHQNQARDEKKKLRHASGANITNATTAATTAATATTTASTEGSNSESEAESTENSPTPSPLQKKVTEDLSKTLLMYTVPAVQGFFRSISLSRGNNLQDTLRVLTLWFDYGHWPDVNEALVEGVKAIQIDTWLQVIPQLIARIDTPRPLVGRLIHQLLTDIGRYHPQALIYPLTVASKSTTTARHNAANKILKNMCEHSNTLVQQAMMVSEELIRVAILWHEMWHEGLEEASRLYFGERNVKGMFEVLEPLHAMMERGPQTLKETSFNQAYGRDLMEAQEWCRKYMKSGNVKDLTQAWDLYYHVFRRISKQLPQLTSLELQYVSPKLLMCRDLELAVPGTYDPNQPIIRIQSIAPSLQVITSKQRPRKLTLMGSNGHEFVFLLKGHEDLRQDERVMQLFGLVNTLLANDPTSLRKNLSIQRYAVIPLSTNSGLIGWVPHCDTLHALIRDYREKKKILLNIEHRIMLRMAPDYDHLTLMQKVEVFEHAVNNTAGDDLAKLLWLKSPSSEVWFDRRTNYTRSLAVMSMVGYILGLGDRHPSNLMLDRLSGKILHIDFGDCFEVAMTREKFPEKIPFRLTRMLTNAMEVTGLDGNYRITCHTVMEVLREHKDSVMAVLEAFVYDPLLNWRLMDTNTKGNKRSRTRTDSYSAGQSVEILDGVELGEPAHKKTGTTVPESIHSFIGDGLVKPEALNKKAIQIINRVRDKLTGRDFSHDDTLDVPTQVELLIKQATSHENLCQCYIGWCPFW
Chain of PI3K-γ (P48736 whole entry, species assumed): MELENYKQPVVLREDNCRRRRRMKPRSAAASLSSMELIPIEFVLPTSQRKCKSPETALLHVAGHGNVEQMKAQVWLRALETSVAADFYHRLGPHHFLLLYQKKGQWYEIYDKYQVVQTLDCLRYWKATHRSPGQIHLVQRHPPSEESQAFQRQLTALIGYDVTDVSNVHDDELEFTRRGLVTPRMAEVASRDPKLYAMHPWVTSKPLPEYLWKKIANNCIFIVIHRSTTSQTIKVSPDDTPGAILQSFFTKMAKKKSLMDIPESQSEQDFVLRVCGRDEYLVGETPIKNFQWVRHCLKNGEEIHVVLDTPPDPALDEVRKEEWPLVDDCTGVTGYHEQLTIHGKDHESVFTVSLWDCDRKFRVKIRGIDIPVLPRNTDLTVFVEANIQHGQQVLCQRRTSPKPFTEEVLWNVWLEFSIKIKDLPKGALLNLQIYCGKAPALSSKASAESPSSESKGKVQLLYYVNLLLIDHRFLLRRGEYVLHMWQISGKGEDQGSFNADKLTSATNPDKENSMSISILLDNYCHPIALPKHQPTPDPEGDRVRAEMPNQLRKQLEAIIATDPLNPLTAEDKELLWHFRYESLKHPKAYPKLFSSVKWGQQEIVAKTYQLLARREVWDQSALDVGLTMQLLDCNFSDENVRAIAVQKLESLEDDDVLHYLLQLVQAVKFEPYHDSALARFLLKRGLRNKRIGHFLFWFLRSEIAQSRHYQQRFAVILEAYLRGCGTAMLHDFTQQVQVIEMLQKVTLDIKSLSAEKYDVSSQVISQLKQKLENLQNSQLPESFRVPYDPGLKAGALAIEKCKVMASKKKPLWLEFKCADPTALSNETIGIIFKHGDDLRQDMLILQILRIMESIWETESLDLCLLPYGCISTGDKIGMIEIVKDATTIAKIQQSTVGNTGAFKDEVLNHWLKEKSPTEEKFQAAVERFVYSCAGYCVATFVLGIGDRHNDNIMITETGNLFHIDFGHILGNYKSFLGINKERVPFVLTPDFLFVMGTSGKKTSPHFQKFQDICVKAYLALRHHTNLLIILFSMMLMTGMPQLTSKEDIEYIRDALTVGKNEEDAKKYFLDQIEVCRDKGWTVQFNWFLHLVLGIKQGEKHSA
Chain of PI3K-α (P42336 whole entry, species assumed): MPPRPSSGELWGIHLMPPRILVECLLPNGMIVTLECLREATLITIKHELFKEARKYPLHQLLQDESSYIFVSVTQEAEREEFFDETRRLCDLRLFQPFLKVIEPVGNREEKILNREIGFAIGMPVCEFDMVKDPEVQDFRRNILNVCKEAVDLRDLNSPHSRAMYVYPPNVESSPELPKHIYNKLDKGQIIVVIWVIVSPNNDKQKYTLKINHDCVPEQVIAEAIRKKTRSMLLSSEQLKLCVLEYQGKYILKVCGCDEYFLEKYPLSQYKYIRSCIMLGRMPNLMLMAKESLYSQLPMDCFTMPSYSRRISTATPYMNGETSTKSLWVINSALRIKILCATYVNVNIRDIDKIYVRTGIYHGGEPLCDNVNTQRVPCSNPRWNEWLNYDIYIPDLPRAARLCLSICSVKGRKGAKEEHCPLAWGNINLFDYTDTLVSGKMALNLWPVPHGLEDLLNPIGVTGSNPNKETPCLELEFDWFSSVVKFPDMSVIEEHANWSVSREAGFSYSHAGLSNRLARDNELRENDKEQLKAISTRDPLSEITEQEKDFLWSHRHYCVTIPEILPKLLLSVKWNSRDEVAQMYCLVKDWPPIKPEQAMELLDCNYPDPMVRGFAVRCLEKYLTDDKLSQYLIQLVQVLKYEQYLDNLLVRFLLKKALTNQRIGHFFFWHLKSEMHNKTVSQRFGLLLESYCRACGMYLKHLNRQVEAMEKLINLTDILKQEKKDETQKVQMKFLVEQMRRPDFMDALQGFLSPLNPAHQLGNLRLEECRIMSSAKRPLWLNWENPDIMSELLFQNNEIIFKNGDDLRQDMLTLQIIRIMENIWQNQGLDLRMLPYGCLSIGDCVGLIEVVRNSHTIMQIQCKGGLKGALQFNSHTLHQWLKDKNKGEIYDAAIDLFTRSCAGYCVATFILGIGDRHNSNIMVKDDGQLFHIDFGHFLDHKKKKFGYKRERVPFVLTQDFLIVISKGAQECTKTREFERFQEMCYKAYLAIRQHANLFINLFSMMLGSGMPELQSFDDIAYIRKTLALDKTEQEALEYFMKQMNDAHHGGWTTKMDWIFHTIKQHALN
Chain of PI3K-α (P27986 whole entry partner, species assumed): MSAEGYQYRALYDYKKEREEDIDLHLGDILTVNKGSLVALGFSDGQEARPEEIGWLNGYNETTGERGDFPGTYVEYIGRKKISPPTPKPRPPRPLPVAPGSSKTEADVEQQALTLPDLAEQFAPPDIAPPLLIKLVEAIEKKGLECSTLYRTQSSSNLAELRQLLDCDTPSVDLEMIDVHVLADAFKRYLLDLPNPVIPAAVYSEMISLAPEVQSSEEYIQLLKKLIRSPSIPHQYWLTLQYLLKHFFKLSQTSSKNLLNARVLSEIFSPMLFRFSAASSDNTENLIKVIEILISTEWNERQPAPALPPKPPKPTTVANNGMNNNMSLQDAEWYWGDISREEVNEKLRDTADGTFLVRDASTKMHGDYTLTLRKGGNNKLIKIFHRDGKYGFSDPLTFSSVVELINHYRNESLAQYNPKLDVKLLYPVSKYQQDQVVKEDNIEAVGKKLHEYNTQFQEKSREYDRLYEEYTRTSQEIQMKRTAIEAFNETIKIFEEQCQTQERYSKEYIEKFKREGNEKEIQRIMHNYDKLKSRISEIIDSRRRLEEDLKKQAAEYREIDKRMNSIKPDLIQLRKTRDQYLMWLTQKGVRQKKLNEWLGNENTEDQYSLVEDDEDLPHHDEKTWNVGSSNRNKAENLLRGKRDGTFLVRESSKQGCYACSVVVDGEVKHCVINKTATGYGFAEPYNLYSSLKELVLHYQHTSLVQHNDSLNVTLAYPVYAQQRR

On to “1-(4-{4-[(1-methylethyl)amino]-6-(8-oxa-3-azabicyclo[3.2.1]oct-3-yl)-1,3,5-triazin-2-yl}phenyl)-3-[6-(4-methylpiperazin-1-yl)pyridin-3-yl]urea [Example 216]”, for which the values for the IC50 in test [1], in test [2] (setting [7]) and in test [3] were 521 nM, 50 nM and 7030 nM, respectively.
On to `O=C(Nc1ccncc1)Nc1ccc(-c2nc(N3CCN(C(=O)c4ccncc4)CC3)nc(N3CC4CCC(C3)O4)n2)cc1` [Example 113, 1-{4-[4-(4-isonicotinoylpiperazin-1-yl)-6-(8-oxa-3-azabicyclo[3.2.1]oct-3-yl)-1,3,5-triazin-2-yl]phenyl}-3-pyridin-4-ylurea], for which the IC50 in test [2] (Homo sapiens, LNCaP, 72 h) was found to be 120 nM; in test [4] it was 3.7 nM.
`FC(F)c1nc2ccccc2n1-c1nc(N2CC3CCC(C2)O3)nc(N2CC3CCC(C2)O3)n1` [Example 138, 2-(difluoromethyl)-1-(4,6-di-8-oxa-3-azabicyclo[3.2.1]oct-3-yl-1,3,5-triazin-2-yl)-1H-benzimidazole]: the IC50 came out at 680 nM in test [2] (Homo sapiens, LNCaP, 72 h) and 43.5 nM in test [4].
The corresponding values for `FC(F)c1nc2ccccc2n1-c1nc(N2CCOCC2)nc(N2CC3CCC(C2)O3)n1` [Example 139, 2-(difluoromethyl)-1-[4-morpholin-4-yl-6-(8-oxa-3-azabicyclo[3.2.1]oct-3-yl)-1,3,5-triazin-2-yl]-1H-benzimidazole] are 180 nM and 74 nM.
Turning to `O=C(Nc1ccncc1)Nc1ccc(-c2nc(OCCN3CCCCC3)nc(N3CC4CCC(C3)O4)n2)cc1` [Example 144, 1-{4-[4-(8-oxa-3-azabicyclo[3.2.1]oct-3-yl)-6-(2-piperidin-1-ylethoxy)-1,3,5-triazin-2-yl]phenyl}-3-pyridin-4-ylurea], the IC50 in test [2] (Homo sapiens, LNCaP, 72 h) worked out at 1500 nM.
For `CCN(CC)c1nc(-c2ccc(NC(=O)Nc3cccnc3)cc2)nc(N2CC3CCC(C2)O3)n1` [Example 194, 1-{4-[4-(diethylamino)-6-(8-oxa-3-azabicyclo[3.2.1]oct-3-yl)-1,3,5-triazin-2-yl]phenyl}-3-pyridin-3-ylurea], the IC50 in test [2] (Homo sapiens, LNCaP, 72 h) worked out at 600 nM; in test [4], 27 nM.
For the compound `CCN(C)c1nc(-c2ccc(NC(=O)Nc3cccnc3)cc2)nc(N2CC3CCC(C2)O3)n1` [Example 202, 1-(4-{4-[ethyl(methyl)amino]-6-(8-oxa-3-azabicyclo[3.2.1]oct-3-yl)-1,3,5-triazin-2-yl}phenyl)-3-pyridin-3-ylurea], the IC50 in test [2] (Homo sapiens, LNCaP, 72 h) came to 700 nM; in test [4], 5.5 nM.
In the case of `CCC(C)Nc1nc(-c2ccc(NC(=O)Nc3cccnc3)cc2)nc(N2CC3CCC(C2)O3)n1` (stereo not shown) [Example 203, 1-{4-[4-(sec-butylamino)-6-(8-oxa-3-azabicyclo[3.2.1]oct-3-yl)-1,3,5-triazin-2-yl]phenyl}-3-pyridin-3-ylurea], the IC50 in test [2] (Homo sapiens, LNCaP, 72 h) worked out at 78 nM; in test [4], 1 nM.
The like results for `O=C(Nc1ccc(-c2nc(NC(CO)CO)nc(N3CC4CCC(C3)O4)n2)cc1)Nc1cccnc1` [Example 204, 1-{4-[4-{[2-hydroxy-1-(hydroxymethyl)ethyl]amino}-6-(8-oxa-3-azabicyclo[3.2.1]oct-3-yl)-1,3,5-triazin-2-yl]phenyl}-3-pyridin-3-ylurea] were, in that order, 6000 nM and 3.5 nM.
`CNC(=O)Nc1ccc(-c2nc(N3CC4CCC(C3)O4)nc(N3CC4CNCC(C3)O4)n2)cc1` [Example 234, 1-methyl-3-{4-[4-(8-oxa-3-azabicyclo[3.2.1]oct-3-yl)-6-(9-oxa-3,7-diazabicyclo[3.3.1]non-3-yl)-1,3,5-triazin-2-yl]phenyl}urea]: the IC50 in test [1] was 4530 nM; in test [2] (Homo sapiens, LNCaP, 72 h), 10000 nM; in test [3] it was 9530 nM.
Turning to `O=C(Nc1ccc(-c2nc(N3CC4CCC(C3)O4)nc(N3CC4CNCC(C3)O4)n2)cc1)Nc1cccnc1` [Example 235, 1-{4-[4-(8-oxa-3-azabicyclo[3.2.1]oct-3-yl)-6-(9-oxa-3,7-diazabicyclo[3.3.1]non-3-yl)-1,3,5-triazin-2-yl]phenyl}-3-pyridin-3-ylurea], the IC50 turned out to be 3210 nM in test [1]; 7900 nM in test [2] (Homo sapiens, LNCaP, 72 h); 4110 nM in test [3].
As for `O=C(Nc1ccc(-c2nc(N3C4CCC3COC4)nc(N3C4CCC3COC4)n2)cc1)N1CCNCC1` [Example 286, N-[4-(4,6-di-3-oxa-8-azabicyclo[3.2.1]oct-8-yl-1,3,5-triazin-2-yl)phenyl]piperazine-1-carboxamide], the IC50 in test [1] stood at 4200 nM; in test [2] (Homo sapiens, LNCaP, 72 h), 32000 nM.
For `CN1CCN(c2ccc(NC(=O)Nc3ccc(-c4nc(N5C[C@H]6C[C@@H]5CO6)nc(N5C[C@H]6C[C@@H]5CO6)n4)cc3)cc2)CC1` [Example 314, 1-{4-[4,6-di-(1R,4R)-2-oxa-5-azabicyclo[2.2.1]hept-5-yl-1,3,5-triazin-2-yl]phenyl}-3-[4-(4-methylpiperazin-1-yl)phenyl]urea], the IC50 in test [1] was found to be 1820 nM; in test [2] (setting [7]), 550 nM; in test [3], 10000 nM.
`CNC(=O)Nc1ccc(-c2nc(Nc3ccc(N4CCN(C)CC4)cc3)nc(N3CC4CCC(C3)O4)n2)cc1` [Example 317, 1-methyl-3-{4-[4-{[4-(4-methylpiperazin-1-yl)phenyl]amino}-6-(8-oxa-3-azabicyclo[3.2.1]oct-3-yl)-1,3,5-triazin-2-yl]phenyl}urea]: the IC50 turned out to be 216 nM in test [1]; 120 nM in test [2] (Homo sapiens, LNCaP, 72 h); 6830 nM in test [3].
`CN1CCN(c2ccc(Nc3nc(-c4ccc(NC(=O)Nc5ccc(C(N)=O)cc5)cc4)nc(N4CC5CCC(C4)O5)n3)cc2)CC1` [Example 318, 4-[({4-[4-{[4-(4-methylpiperazin-1-yl)phenyl]amino}-6-(8-oxa-3-azabicyclo[3.2.1]oct-3-yl)-1,3,5-triazin-2-yl]phenyl}carbamoyl)amino]benzamide]: the IC50 came out at 15.5 nM in test [1]; 16 nM in test [1] (listed as 334); 1000 nM in test [2] (Homo sapiens, LNCaP, 72 h); 679 nM in test [3]; 680 nM in test [3] (listed as 334).
On to `O=C(Nc1ccncc1)Nc1ccc(-c2nc(N3C4CCC3COC4)nc(N3[C@H](CO)CC[C@@H]3CO)n2)cc1` [Example 347, 1-(4-{4-[(2R,5S)-2,5-bis(hydroxymethyl)pyrrolidin-1-yl]-6-(3-oxa-8-azabicyclo[3.2.1]oct-8-yl)-1,3,5-triazin-2-yl}phenyl)-3-pyridin-4-ylurea], for which the IC50 in test [1] amounted to 796 nM; in test [2] (Homo sapiens, LNCaP, 72 h), 9 nM; in test [3] it was 8440 nM.
Regarding `CC(C)N1CCN(c2ccc(NC(=O)Nc3ccc(-c4nc(C5CCOCC5)nc(N5C6CCC5COC6)n4)cc3)cc2)CC1` [Example 435, 1-(4-(4-(3-oxa-8-azabicyclo[3.2.1]octan-8-yl)-6-(tetrahydro-2H-pyran-4-yl)-1,3,5-triazin-2-yl)phenyl)-3-(4-(4-isopropylpiperazin-1-yl)phenyl)urea], the IC50 in test [2] (Homo sapiens, LNCaP, 72 h) was 4 nM; in test [3], 4600 nM.
Turning to `CC(C)N1CCN(C(=O)c2ccc(NC(=O)Nc3ccc(-c4nc(C5CCOCC5)nc(N5C6CCC5COC6)n4)cc3)cc2)CC1` [Example 439, 1-(4-(4-(3-oxa-8-azabicyclo[3.2.1]octan-8-yl)-6-(tetrahydro-2H-pyran-4-yl)-1,3,5-triazin-2-yl)phenyl)-3-(4-(4-isopropylpiperazine-1-carbonyl)phenyl)urea], in test [2] (Homo sapiens, LNCaP, 72 h), the IC50 was 1 nM.
For the compound `CN(C)CCN(C)C(=O)c1ccc(NC(=O)Nc2ccc(-c3nc(N4CCOCC4)nc(N4CC5CCC4CO5)n3)cc2)cc1` (stereo not shown) [Example 816, N-[2-(dimethylamino)ethyl]-N-methyl-4-[({4-[4-morpholin-4-yl-6-(2-oxa-5-azabicyclo[2.2.2]oct-5-yl)-1,3,5-triazin-2-yl]phenyl}carbamoyl)amino]benzamide], the IC50 was 2.4 nM in test [1]; 2 nM in test [5]; 26 nM in test [3]; 11 nM in test [6]; 1.06 nM in test [4].
The like results for `O=C(Nc1ccncc1)Nc1ccc(-c2nc(N3CCOCC3)nc(N3C4COCC3[C@@H](O)C4)n2)cc1` (stereo partly drawn) [Example 818, 1-(4-{4-[(6S)-6-hydroxy-3-oxa-8-azabicyclo[3.2.1]oct-8-yl]-6-morpholin-4-yl-1,3,5-triazin-2-yl}phenyl)-3-pyridin-4-ylurea] were, in that order, 37.7 nM, 129 nM, 185 nM, 237 nM and 2 nM.
The corresponding values for `O=C(Nc1ccncc1)Nc1ccc(-c2nc(N3CCOCC3)nc(N3C4COCC3C(OCc3ccccc3)C4)n2)cc1` (stereo not shown) [Example 819, 1-(4-{4-[6-(benzyloxy)-3-oxa-8-azabicyclo[3.2.1]oct-8-yl]-6-morpholin-4-yl-1,3,5-triazin-2-yl}phenyl)-3-pyridin-4-ylurea] are 44 nM, 442 nM, 358 nM, 768 nM and 17 nM.
As for `CN1CCN(c2ccc(NC(=O)Nc3ccc(-c4nc(N5C6COCC5COC6)nc(N5C6COCC5COC6)n4)cc3)cc2)CC1` [Example 823, 1-[4-(4,6-di-3,7-dioxa-9-azabicyclo[3.3.1]non-9-yl-1,3,5-triazin-2-yl)phenyl]-3-[4-(4-methylpiperazin-1-yl)phenyl]urea], the IC50 in test [1] stood at 661 nM; in test [2] (Homo sapiens, LNCaP, 72 h), 55 nM; in test [3] it was 2790 nM.
